Test results: patent EP0384594A1, “Anti-inflammatory aryl derivatives” (THE WELLCOME FOUNDATION LIMITED, priority 1989, dated 1990)
Read-outs that look alike come from different tables or passages of the source.

Key:
mice = assay type: in vivo
Experimental: The compound of Synthetic Example 1 was administered to mice per orally at doses of up to 300mg/kg and intraperitoneally at doses of up to 100mg/kg.

5-lipoxygenase [1] = biological target: T1, 5-lipoxygenase (Rattus norvegicus, UniProt P12527); test: Ex vivo inhibition of 5-lipoxygenase (stimulated LTB4 synthesis in blood after dosing), rats; conditions: po, administered orally to rats, ex vivo A23187-stimulated blood, read-out: inhibited LTB₄ synthesis
T1 construct: endogenous in cells; host or cells: whole blood of dosed rats (blood leukocytes)
T1 sequence (P12527 1-673): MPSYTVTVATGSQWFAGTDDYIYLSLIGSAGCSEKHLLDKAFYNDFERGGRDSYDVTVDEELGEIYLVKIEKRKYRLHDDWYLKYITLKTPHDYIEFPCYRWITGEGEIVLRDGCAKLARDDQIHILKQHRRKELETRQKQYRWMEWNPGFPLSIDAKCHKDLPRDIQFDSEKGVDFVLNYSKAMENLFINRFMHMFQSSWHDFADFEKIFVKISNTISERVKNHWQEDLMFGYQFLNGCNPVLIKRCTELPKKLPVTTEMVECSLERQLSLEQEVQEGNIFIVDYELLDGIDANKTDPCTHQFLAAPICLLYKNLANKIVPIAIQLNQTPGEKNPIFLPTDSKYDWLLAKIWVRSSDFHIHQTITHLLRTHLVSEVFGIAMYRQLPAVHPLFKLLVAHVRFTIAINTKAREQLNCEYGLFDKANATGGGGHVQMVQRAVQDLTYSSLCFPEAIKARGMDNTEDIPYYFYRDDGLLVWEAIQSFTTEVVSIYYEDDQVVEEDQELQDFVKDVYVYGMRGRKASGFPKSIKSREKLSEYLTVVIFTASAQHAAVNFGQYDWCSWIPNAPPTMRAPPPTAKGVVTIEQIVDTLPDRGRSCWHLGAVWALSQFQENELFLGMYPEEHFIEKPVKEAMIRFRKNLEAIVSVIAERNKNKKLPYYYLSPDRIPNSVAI
Experimental: After administration of the test compound, the concentration of LTB₄ in the plasma was measured periodically and expressed as a percentage of the mean control value. The procedure used is described in Br. J. Pharmacol. 94, 528 (1988) and may be summarised as follows.
Within 2 minutes of collection, duplicate samples (0.5ml) of blood were stimulated with the calcium ionophore A23187 (final concentration 15µg/ml) for 30 minutes at 37 °C. When incubation was complete, the samples were centrifuged (12,000G for 2 minutes) and the cell-free plasma removed. The plasma concentration of LTB₄ was then determined by specific radioimmunoassay.
The compounds of Synthetic Examples 1 to 3 all inhibited the stimulated ex vivo synthesis of LTB₄ for several hours after their administration. The compound of Synthetic Example 1, for example, when administered orally to rabbits at a dose of 2mg/kg inhibited LTB₄ synthesis by more than 50% for a period of greater than 16 hours. The same compound when administered orally to rats at a dose of 10mg/kg inhibited LTB₄ synthesis by more than 50% for longer than 10 hours.

[2] = Anti-oxidant activity: peroxyl radical scavenging, inhibition of peroxidation of linoleic acid
Experimental: As a measure of anti-oxidant activity, the peroxyl radical scavenging abilities of the compounds of the invention were determined by testing each compound's ability to inhibit the peroxidation of linoleic acid using the method described in Biochem. Pharm. 38, 1465 (1989).

5-lipoxygenase [3] = biological target: T2, 5-lipoxygenase (Homo sapiens, UniProt P09917); test: In vitro inhibition of 5-lipoxygenase, ionophore-stimulated whole human blood; assay type: cell-based; conditions: read-out: IC₅₀ Whole blood
T2 construct: The experiment was repeated using ionophore-stimulated whole human blood; endogenous in cells; host or cells: whole human blood (blood leukocytes)
T2 sequence (P09917 1-674): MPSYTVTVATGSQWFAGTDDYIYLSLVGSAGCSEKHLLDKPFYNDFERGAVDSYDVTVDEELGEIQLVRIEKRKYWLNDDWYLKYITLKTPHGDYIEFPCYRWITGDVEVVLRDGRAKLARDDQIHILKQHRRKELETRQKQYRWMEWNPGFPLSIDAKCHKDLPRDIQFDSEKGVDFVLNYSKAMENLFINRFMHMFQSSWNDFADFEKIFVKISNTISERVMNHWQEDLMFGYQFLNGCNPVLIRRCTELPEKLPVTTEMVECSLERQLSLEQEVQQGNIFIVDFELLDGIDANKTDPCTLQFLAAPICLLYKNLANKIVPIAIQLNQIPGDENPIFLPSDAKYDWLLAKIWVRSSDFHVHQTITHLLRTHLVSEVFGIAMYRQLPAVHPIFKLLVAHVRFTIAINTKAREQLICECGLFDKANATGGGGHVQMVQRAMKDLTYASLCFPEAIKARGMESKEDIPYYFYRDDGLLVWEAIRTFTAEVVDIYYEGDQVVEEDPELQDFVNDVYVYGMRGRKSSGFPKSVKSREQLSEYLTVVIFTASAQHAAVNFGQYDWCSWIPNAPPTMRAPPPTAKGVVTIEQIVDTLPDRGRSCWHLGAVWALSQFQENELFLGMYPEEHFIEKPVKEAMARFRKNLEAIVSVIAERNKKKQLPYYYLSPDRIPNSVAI
Experimental: Blood from normal aspirin-free volunteers was centrifuged to separate leukocytes from red cells and platelets. A solution of the test compound in DMSO (10µl, final concentration in the range 0.01 - 100µM) was added to cell homogenate (470µl) and the mixture incubated at 37 °C for 5 minutes. Solutions of arachidonic acid in methanol (250µM, 10µl, final concentration 5µM) and calcium chloride in water (100mM, 10µl, final concentration 2mM) were then added simultaneously and the mixture incubated at 37 °C for a further 5 minutes. The reaction was stopped by boiling. Radioimmunoassay was conducted for leukotriene B₄.
The experiment was repeated using ionophore-stimulated whole human blood.

5-lipoxygenase [4] = test: Ex vivo inhibition of 5-lipoxygenase (stimulated LTB4 synthesis in blood after dosing), rabbits; conditions: for inhibition of the stimulated ex vivo synthesis of leukotriene B₄ (LTB₄), result in words: rabbits, preliminary studies
Experimental: After administration of the test compound, the concentration of LTB₄ in the plasma was measured periodically and expressed as a percentage of the mean control value. The procedure used is described in Br. J. Pharmacol. 94, 528 (1988) and may be summarised as follows. Within 2 minutes of collection, duplicate samples (0.5ml) of blood were stimulated with the calcium ionophore A23187 (final concentration 15µg/ml) for 30 minutes at 37 °C. When incubation was complete, the samples were centrifuged (12,000G for 2 minutes) and the cell-free plasma removed. The plasma concentration of LTB₄ was then determined by specific radioimmunoassay. The compounds of Synthetic Examples 1 to 3 all inhibited the stimulated ex vivo synthesis of LTB₄ for several hours after their administration. The compound of Synthetic Example 1, for example, when administered orally to rabbits at a dose of 2mg/kg inhibited LTB₄ synthesis by more than 50% for a period of greater than 16 hours. The same compound when administered orally to rats at a dose of 10mg/kg inhibited LTB₄ synthesis by more than 50% for longer than 10 hours.

[5] = system: Male New Zealand White rabbits; test: Combination effects with an NSAID: antigen (ovalbumin)-induced arthritis of the knee joint in rabbits; assay type: in vivo; conditions: for proteoglycan loss from the cartilage, result in words / PROTEOGLYCAN LOSS: 14 days after antigen challenge; for mean leukocyte infiltrate in the synovial fluid, result in words / LEUKOCYTES (CELL NUMBER x 10⁶): 14 days after challenge; for PROTEOGLYCAN LOSS: articular cartilage of arthritic joint versus contralateral joint; for JOINT SWELLING: oral x3/24h: compound A 2mg/kg, indomethacin 1mg/kg; for reduced swelling compared to the vehicle-treated controls: from day 3 onwards, maximum reduction; for Lymphocytes / Total cells: histological evaluation of synovial lining; for LEUKOCYTES (CELL NUMBER x 10⁶): synovial fluid of arthritic joint
Experimental: Male New Zealand White rabbits (2.5 - 3kg) were immunised with intradermal injections of 4mg of ovalbumin in 1ml of Freund's complete adjuvant. Animals were reimmunised 14 days later in the same way. Five days after the second immunisation, arthritis was induced in the right knee joint by injecting 1ml of a sterile solution of ovalbumin (5mg/ml) into the joint cavity. Joint diameters were measured (on a randomised blind basis) with calipers at frequent intervals after antigen challenge. Animals were killed after 14 days and the joint space was washed with 1ml of saline and the resultant fluid was taken for total and differential leukocyte counts. Sensitised animals were randomly allocated to groups of 5-8. The compound of Synthetic Example 1, (E)-N-{1-Methyl-3-[3-(4-fluorophenoxy)phenyl]prop-2-en-1-yl}-N-hydroxyurea (compound A), was administered in suspension following 18h ball-milling in 0.25% Celacol as vehicle. The non-steroidal anti-inflammatory indomethacin was dissolved in a small volume of 1M Tris buffer pH8 and then made up to volume with 0.25% Celacol. Control animals received 0.25% Celacol. Each animal received an oral dose (approximately 5ml) of vehicle or drug 3 times every 24h. Doses were administered at 8.0am, 4.0pm and 12 midnight for 16-17 days commencing 1h before antigen challenge on day 0. All doses were given orally by stomach tube. The groups were as follows: 1-7: Controls (5ml 0.25% Celacol x3/24h) 8-14: 1mg/kg indomethacin dissolved in 0.25% Celacol x3/24h 15-21: 2mg/kg compound A suspended in 0.25% Celacol x3/24h 22-28: 2mg/kg compound A suspended in 0.25% Celacol plus 1mg/kg indomethacin dissolved in 0.25% Celacol Synovial lining tissue was removed from the joint, fixed, processed, cut and stained for microscopic examination. Histological scores were derived for the total mass of inflamed synovial lining, lymphocyte infiltration and polymorph content. The slides were read on a randomised blind basis. Articular cartilage was dissected from the ends of the femurs and digested with papain prior to measurement of the concentration of sulphated glycosaminoglycans (GAGs). The proteoglycan content was expressed as µg GAG/mg wet weight of cartilage and compared with values obtained with cartilage from the contralateral control joint.

[6] = duration of arthritis 14 (days)

Compound | deaths or serious deleterious effects (mice; intraperitoneally, doses of up to 100mg/kg) | deaths or serious deleterious effects (mice; per orally, doses of up to 300mg/kg) | inhibition at 10 mg/kg (5-lipoxygenase [1]) [%] | apparent rate constant (kAH) for scavenging peroxyl radicals [2] | IC50 (5-lipoxygenase [3]) [nM] | period for which LTB₄ synthesis was inhibited by more than 50% (5-lipoxygenase [4]; administered orally to rabbits, 2mg/kg) | inhibited LTB₄ synthesis (5-lipoxygenase [4]; administered orally to rabbits, 2mg/kg, ex vivo A23187-stimulated blood) | inhibition of the stimulated ex vivo synthesis of leukotriene B₄ (LTB₄), result in words (5-lipoxygenase [4]) | proteoglycan loss from the cartilage, result in words [5] | mean leukocyte infiltrate in the synovial fluid, result in words [5] | PROTEOGLYCAN LOSS [5] [%] | JOINT SWELLING ([5]; duration of arthritis 1 (day)) [MM] | JOINT SWELLING ([5]; duration of arthritis 2 (days)) [MM] | JOINT SWELLING ([5]; duration of arthritis 3 (days)) [MM] | JOINT SWELLING ([5]; duration of arthritis 8 (days)) [MM] | JOINT SWELLING [5, 6] [MM] | reduced swelling compared to the vehicle-treated controls [5] | Lymphocytes [5] | Total cells [5] | LEUKOCYTES (CELL NUMBER x 10⁶) [5] [x 10⁶]
CC(/C=C/c1cccc(Oc2ccc(F)cc2)c1)N(O)C(N)=O (racemic) [Synthetic Example 1, (E)-N-{3-[3-(4-fluorophenoxy)phenyl]-1(R,S)-methylprop-2-en-1-yl}-N-hydroxyurea] | No deaths or serious deleterious effects | No deaths or serious deleterious effects | > 50 | 0.408 | 150 | greater than 16 hours | more than 50% | effectively inhibited | reduced proteoglycan loss | slightly reduced | 34 | 4.6 | 5.2 | 4.6 | 3.5 | 3.2 | up to 26% | 59 | 367 | 6.1
COc1ccc2c(c1)c(CC(=O)O)c(C)n2C(=O)c1ccc(Cl)cc1 [Indomethacin, indomethacin, reference compound] | – | – | – | – | – | – | – | – | reduced proteoglycan loss | slightly reduced | 38 | 4.3 | 4.5 | 3.5 | 2.6 | 2.0 | up to 53% | 51 | 365 | 7.3
C[C@H](/C=C/c1cccc(Oc2ccc(F)cc2)c1)N(O)C(N)=O [Synthetic Example 2, (E)-N-{3-[3-(4-fluorophenoxy)phenyl]-1(R)-methylprop-2-en-1-yl}-N-hydroxyurea] | – | – | – | – | 80 | – | – | effectively inhibited | – | – | – | – | – | – | – | – | – | – | – | –
C[C@@H](/C=C/c1cccc(Oc2ccc(F)cc2)c1)N(O)C(N)=O [Synthetic Example 3, (E)-N-{3-[3-(4-fluorophenoxy)phenyl]-1(S)-methylprop-2-en-1-yl}-N-hydroxyurea] | – | – | – | – | 80 | – | – | effectively inhibited | – | – | – | – | – | – | – | – | – | – | – | –
